Assay results published in US20260285850A1, “SUBSTITUTED OXAZOLIDINONES AND IMIDAZOLINONES AS HERBICIDES” (FMC CORPORATION, priority 2023, published 2026).

Key:
Format in all cases: in vivo
[1] = system: sedge, umbrella (small-flower umbrella sedge, Cyperus difformis); experiment: Test B flooded paddy test, visual plant response rating 0-100; details: 250 g ai/ha, Flood, applied to paddy water, evaluated after 13 days
Summary of the method: (§1)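 Visual scores versus untreated controls were recorded 13 days after treatment of greenhouse-held plants. At the 2-leaf stage, pots were flooded 3 cm above the soil surface and compounds added straight to the water.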

[2] = system: barnyardgrass (Echinochloa crusgalli); experiment: as above; details: 250 g ai/ha, Flood, applied to paddy water, evaluated after 13 days
Summary of the method: as §1

rice (Oryza sativa) = experiment: as above; details: 250 g ai/ha, Flood, applied to paddy water, evaluated after 13 days
Summary of the method: as §1

[3] = system: ducksalad (Heteranthera limosa); experiment: as above; details: 250 g ai/ha, Flood, applied to paddy water, evaluated after 13 days
Summary of the method: as §1

corn (Zea mays) [4] = experiment: Test A postemergence application, visual injury rating 0-100
Summary of the method: (§2)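 Plants were grown in a loam soil-sand blend and treated with test chemical in a non-phytotoxic solvent mixture containing surfactant, either sprayed on soil preemergence or applied postemergence to 2-10 cm plants. After 10 days in a greenhouse, injury was scored visually against untreated controls, 0 meaning no effect and 100 complete control.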

[5] = system: horseweed (Erigeron canadensis); experiment: as above
Summary of the method: as §2

[6] = system: ragweed (common ragweed, Ambrosia artemisiifolia); experiment: as above
Summary of the method: as §2

[7] = system: green foxtail (Setaria viridis); experiment: as above
Summary of the method: as §2

[8] = system: blackgrass (Alopecurus myosuroides); experiment: as above
Summary of the method: as §2

kochia (Bassia scoparia) [9] = experiment: as above
Summary of the method: as §2

[10] = system: wheat (Triticum aestivum); experiment: as above
Summary of the method: as §2

[11] = system: palmer (palmer amaranth, palmer pigweed, Amaranthus palmeri); experiment: as above
Summary of the method: as §2

soybean (Glycine max) [12] = experiment: as above
Summary of the method: as §2

[13] = system: ryegrass, Italian (italian ryegrass, Lolium multiflorum); experiment: as above
Summary of the method: as §2

[14] = system: oat, wild (wild oat, Avena fatua); experiment: as above
Summary of the method: as §2

[15] = system: galium (catchweed bedstraw, Galium aparine); experiment: as above
Summary of the method: as §2

[16] = system: barnyardgrass (Echinochloa crus-galli); experiment: as above
Summary of the method: as §2

corn (Zea mays) [17] = experiment: Test A preemergence soil spray, visual injury rating 0-100; details: 10 days
Summary of the method: as §2

[18] = system: ragweed (common ragweed, Ambrosia artemisiifolia); experiment: as above; details: 10 days
Summary of the method: as §2

[19] = system: green foxtail (Setaria viridis); experiment: as above; details: 10 days
Summary of the method: as §2

[20] = system: blackgrass (Alopecurus myosuroides); experiment: as above; details: 10 days
Summary of the method: as §2

kochia (Bassia scoparia) [21] = experiment: as above; details: 10 days
Summary of the method: as §2

[22] = system: wheat (Triticum aestivum); experiment: as above; details: 10 days
Summary of the method: as §2

[23] = system: palmer (palmer amaranth, palmer pigweed, Amaranthus palmeri); experiment: as above; details: 10 days
Summary of the method: as §2

soybean (Glycine max) [24] = experiment: as above; details: 10 days
Summary of the method: as §2

[25] = system: ryegrass, Italian (italian ryegrass, Lolium multiflorum); experiment: as above; details: 10 days
Summary of the method: as §2

[26] = system: oat, wild (wild oat, Avena fatua); experiment: as above; details: 10 days
Summary of the method: as §2

[27] = system: barnyardgrass (Echinochloa crus-galli); experiment: as above; details: 10 days
Summary of the method: as §2

[28] = 62 g ai/ha, postemergence, 10 days, 0 = no effect, 100 = complete control
[29] = Postemergence, 16 g ai/ha, greenhouse 10 days, 0 no effect, 100 complete control
[30] = 62 g ai/ha, 0 = no effect, 100 = complete control

## CC1(C(=O)NC2CC=C(C(=O)OCC(F)(F)F)C2)CN(c2cc(Cl)cc(Cl)c2)C(=O)O1 (stereo not shown) [Compound 96]
[1]
  Plant response rating, Sedge, Umbrella (0 to 100 scale, 0 is no effect and 100 is complete control): 95
[2]
  Plant response rating, Barnyardgrass (0 to 100 scale, 0 is no effect and 100 is complete control): 95
Rice (Oryza sativa)
  Plant response rating, Rice (0 to 100 scale, 0 is no effect and 100 is complete control): 25
[3]
  Plant response rating, Ducksalad (0 to 100 scale, 0 is no effect and 100 is complete control): 70
Corn (Zea mays) [4]; [28]
  Corn plant response rating (0-100): 100
Corn (Zea mays) [4]; [29]
  Corn plant response rating (0 to 100 scale): 100
[5]; [28]
  Horseweed plant response rating (0-100): 70
[5]; [29]
  Horseweed plant response rating (0 to 100 scale): 40
[6]; [28]
  Ragweed plant response rating (0-100): 60
[6]; [29]
  Ragweed plant response rating (0 to 100 scale): 40
[7]; [28]
  Foxtail, Green plant response rating (0-100): 90
[7]; [29]
  Foxtail, Green plant response rating (0 to 100 scale): 90
[8]; [28]
  Blackgrass plant response rating (0-100): 90
[8]; [29]
  Blackgrass plant response rating (0 to 100 scale): 80
Kochia (Bassia scoparia) [9]; [28]
  Kochia plant response rating (0-100): 80
Kochia (Bassia scoparia) [9]; [29]
  Kochia plant response rating (0 to 100 scale): 70
[10]; [28]
  Wheat plant response rating (0-100): 90
[10]; [29]
  Wheat plant response rating (0 to 100 scale): 30
[11]; [28]
  Pigweed, Palmer plant response rating (0-100): 90
[11]; [29]
  Pigweed, Palmer plant response rating (0 to 100 scale): 70
Soybean (Glycine max) [12]; [28]
  Soybean plant response rating (0-100): 80
Soybean (Glycine max) [12]; [29]
  Soybean plant response rating (0 to 100 scale): 80
[13]; [28]
  Ryegrass, Italian plant response rating (0-100): 90
[13]; [29]
  Ryegrass, Italian plant response rating (0 to 100 scale): 80
[14]; [28]
  Oat, Wild plant response rating (0-100): 80
[14]; [29]
  Oat, Wild plant response rating (0 to 100 scale): 50
[15]; [28]
  Galium plant response rating (0-100): 90
[15]; [29]
  Galium plant response rating (0 to 100 scale): 70
[16]; [28]
  Barnyardgrass plant response rating (0-100): 100
[16]; [29]
  Barnyardgrass plant response rating (0 to 100 scale): 100
Corn (Zea mays) [17]; 16 g ai/ha, 0 to 100 scale
  Corn plant response rating: 0
Corn (Zea mays) [17]; [30]
  Corn plant response rating (0-100): 40
[18]; 16 g ai/ha, 0 to 100 scale
  Ragweed plant response rating: 0
[18]; [30]
  Ragweed plant response rating (0-100): 0
[19]; 16 g ai/ha, 0 to 100 scale
  Foxtail, Green plant response rating: 10
[19]; [30]
  Foxtail, Green plant response rating (0-100): 90
[20]; 16 g ai/ha, 0 to 100 scale
  Blackgrass plant response rating: 0
[20]; [30]
  Blackgrass plant response rating (0-100): 0
Kochia (Bassia scoparia) [21]; 16 g ai/ha, 0 to 100 scale
  Kochia plant response rating: 0
Kochia (Bassia scoparia) [21]; [30]
  Kochia plant response rating (0-100): 0
[22]; 16 g ai/ha, 0 to 100 scale
  Wheat plant response rating: 0
[22]; [30]
  Wheat plant response rating (0-100): 0
[23]; 16 g ai/ha, 0 to 100 scale
  Pigweed, Palmer plant response rating: 100
[23]; [30]
  Pigweed, Palmer plant response rating (0-100): 90
Soybean (Glycine max) [24]; 16 g ai/ha, 0 to 100 scale
  Soybean plant response rating: 10
Soybean (Glycine max) [24]; [30]
  Soybean plant response rating (0-100): 30
[25]; 16 g ai/ha, 0 to 100 scale
  Ryegrass, Italian plant response rating: 20
[25]; [30]
  Ryegrass, Italian plant response rating (0-100): 60
[26]; 16 g ai/ha, 0 to 100 scale
  Oat, Wild plant response rating: 0
[26]; [30]
  Oat, Wild plant response rating (0-100): 20
[27]; 16 g ai/ha, 0 to 100 scale
  Barnyardgrass plant response rating: 10
[27]; [30]
  Barnyardgrass plant response rating (0-100): 60
